Source: patent US4727080A, “1-substituted derivatives of 6-fluoro-7-(pyrrol-1-yl)-1,4-dihydro-4-oxoquinoline-3-carboxylic acid, their preparation and their application as drugs” (Provesan S.A., priority 1984, dated 1988)
Values after ≈ are worked out from the molar mass of the structure shown.

How the values were obtained:
Format in all cases: cell-based
[1] = test system: Escherichia coli R-1513; assay: "In vitro" MIC, Escherichia coli R-1513; details: Escherichia coli, R1513, 20 h, read-out: "In vitro" MIC
Description: (§1) Antimicrobial pharmacological activity (G. L. Daquet and Y. A. Chabbect, Techniques en bacteriologie (Techniques in bacteriology), vol. 3, Flammarion Medecine-Sciences, Paris, 1972, and W. B. Hugo and A. D. Rusell, Pharmaceutical Microbiology, Blackwell Scientific Publications, London (1977).
(§2) A streak culture of each of the microorganisms is formed in tubes of antibiotics agar no. 1 and incubated for 20 hours at 37° C. A culture loop is then taken and a culture is formed in a tryptone-soya broth and incubated for 20 hours at 37° C. The resulting culture is diluted to 1/4 with Ringer's physiological solution to give a standardized suspension of 10^5 ufc/ml for each organism.
(§3) Starting from a solution of 1000 μg/ml in 0.1N NaOH, each product is diluted successively in dextrose agar (melted beforehand and kept at 50° C.) to give the following concentrations: 64-32-16-8-4-2-1-0.5-0.25-0.125 μg of derivative/ml of medium.
(§4) After this, each concentration of each product is divided up into Petri dishes of 10 cm diameter at a rate of 10 ml of medium per dish and using as many dishes as there are microorganisms to be tested.
(§5) Once the medium has cooled, the dishes are treated with the inoculations at a rate of 0.4 ml of inoculation per dish. They are spread out with a Drigalski loop and the supernatant is collected. The inoculated dishes are incubated at 37° C. for 20 hours.

[2] = test system: Serratia marcescens ATTC 13880; assay: "In vitro" MIC, Serratia marcescens; details: Serratia marcescens, ATTC13880, 20 h, read-out: "In vitro" MIC
Description: as §1
Serratia marcescens ATTC 13880
as §2, §3, §4, §5

[3] = test system: Salmonella typhimurium AMES 98; assay: "In vitro" MIC, Salmonella typhimurium AMES 98; details: Salmonella enterica, TYPHIMURIUM, 20 h, read-out: "In vitro" MIC
Description: as §1
Salmonella typhimurium AMES 98
as §2, §3, §4, §5

[4] = test system: Enterobacter aerogenes ATCC 15038; assay: "In vitro" MIC, Enterobacter aerogenes; details: Klebsiella aerogenes, ATCC15038, 20 h, read-out: "In vitro" MIC
Description: as §1
Enterobacter aerogenes ATCC 15038
as §2, §3, §4, §5

[5] = test system: Shigella flexnerii; assay: "In vitro" MIC, Shigella flexnerii; details: 20 h, read-out: "In vitro" MIC
Description: as §1, §2, §3, §4, §5

[6] = test system: Klebsiella pneumoniae ATCC 10031; assay: "In vitro" MIC, Klebsiella pneumoniae; details: Klebsiella pneumoniae, ATCC10031, 20 h, read-out: "In vitro" MIC
Description: as §1
Klebsiella pneumoniae ATCC 10031
as §2, §3, §4, §5

[7] = test system: Staphylococcus aureus ATCC 5488/23; assay: "In vitro" MIC, Staphylococcus aureus ATCC 5488/23; details: Staphylococcus aureus, ATCC5488, 20 h, read-out: "In vitro" MIC
Description: as §1
Staphylococcus aureus ATCC 5488/23
as §2, §3, §4, §5

[8] = test system: Sarcina lutea ATCC 9341; assay: "In vitro" MIC, Sarcina lutea; details: Micrococcus luteus, ATCC9341, 20 h, read-out: "In vitro" MIC
Description: as §1, §2, §3, §4, §5

[9] = test system: Staphylococcus aureus ATCC 25178; assay: "In vitro" MIC, Staphylococcus aureus ATCC 25178; details: Staphylococcus aureus, ATCC25178, 20 h, read-out: "In vitro" MIC
Description: as §1
Staphylococcus aureus ATCC 25178
as §2, §3, §4, §5

[10] = test system: Streptococcus faecalis ATCC 10541; assay: "In vitro" MIC, Streptococcus faecalis; details: Enterococcus faecalis, ATCC10541, 20 h, read-out: "In vitro" MIC
Description: as §1
Streptococcus faecalis ATCC 10541
as §2, §3, §4, §5

[11] = test system: Pseudomonas aeruginosa 25115; assay: "In vitro" MIC, Pseudomonas aeruginosa 25115; details: Pseudomonas aeruginosa, 25115, 20 h, read-out: "In vitro" MIC
Description: as §1
Pseudomonas aeruginosa 25115
as §2, §3, §4, §5

[12] = test system: Pseudomonas aeruginosa ADSA 47; assay: "In vitro" MIC, Pseudomonas aeruginosa ADSA 47; details: Pseudomonas aeruginosa, ADSA47, 20 h, read-out: "In vitro" MIC
Description: as §1
Pseudomonas aeruginosa ADSA 47
as §2, §3, §4, §5

[13] = test system: Escherichia coli ATCC 10536; assay: "In vitro" MIC, Escherichia coli ATCC 10536; details: Escherichia coli, ATCC10536, 20 h, read-out: "In vitro" MIC
Description: as §1
Escherichia coli ATCC 10536
as §2, §3, §4, §5

[14] = test system: Bacillus subtilis ATCC 6633; assay: "In vitro" MIC, Bacillus subtilis; details: Bacillus subtilis, ATCC6633, 20 h, read-out: "In vitro" MIC
Description: as §1
Bacillus subtilis ATCC 6633
as §2, §3, §4, §5

[15] = test system: Proteus morganii CHSP-16; assay: "In vitro" MIC, Proteus morganii; details: Morganella morganii, CHSP16, 20 h, read-out: "In vitro" MIC
Description: as §1, §2, §3, §4, §5

[16] = test system: Enterobacter cloacae CHSP-20; assay: "In vitro" MIC, Enterobacter cloacae; details: Enterobacter cloacae, CHSP20, 20 h, read-out: "In vitro" MIC
Description: as §1
Enterobacter cloacae CHSP-20
as §2, §3, §4, §5

[17] = test system: Citrobacter freundii ATCC 11606; assay: "In vitro" MIC, Citrobacter freundii; details: Citrobacter freundii, ATCC11606, 20 h, read-out: "In vitro" MIC
Description: as §1
Citrobacter freundii ATCC 11606
as §2, §3, §4, §5

[18] = test system: Proteus mirabilis ATCC 4675; assay: "In vitro" MIC, Proteus mirabilis; details: Proteus mirabilis, ATCC4675, 20 h, read-out: "In vitro" MIC
Description: as §1
Proteus mirabilis ATCC 4675
as §2, §3, §4, §5

[19] = test system: Salmonella typhimurium AMES 100; assay: "In vitro" MIC, Salmonella typhimurium AMES 100; details: Salmonella enterica, TYPHIMURIUM, 20 h, read-out: "In vitro" MIC
Description: as §1
Salmonella typhimurium AMES 100
as §2, §3, §4, §5

[20] = test system: Micrococcus flavus ATCC 10240; assay: "In vitro" MIC, Micrococcus flavus; details: Micrococcus flavus, ATCC10240, 20 h, read-out: "In vitro" MIC
Description: as §1
Micrococcus flavus ATTC 10240
as §2, §3, §4, §5

CCn1cc(C(=O)O)c(=O)c2ccc(C)nc21 [Nalidixic acid, reference compound]
MIC [1]: 4 µg/mL (≈ 17.2 µM) | MIC [2]: 1 µg/mL (≈ 4.31 µM) | MIC [3]: 0.5 µg/mL (≈ 2.15 µM) | MIC [4]: 4 µg/mL (≈ 17.2 µM) | MIC [5]: 2 µg/mL (≈ 8.61 µM) | MIC [6]: 1 µg/mL (≈ 4.31 µM) | MIC [7]: 32 µg/mL (≈ 138 µM) | MIC [8]: 128 µg/mL (≈ 551 µM) | MIC [9]: ≥ 64 µg/mL | MIC [10]: ≥ 64 µg/mL | MIC [11]: ≥ 128 µg/mL | MIC [12]: ≥ 128 µg/mL | MIC [13]: 0.25 µg/mL (≈ 1.08 µM) | MIC [14]: 1 µg/mL (≈ 4.31 µM) | MIC [15]: 1 µg/mL (≈ 4.31 µM) | MIC [16]: 4 µg/mL (≈ 17.2 µM) | MIC [17]: 4 µg/mL (≈ 17.2 µM) | MIC [18]: 8 µg/mL (≈ 34.4 µM) | MIC [19]: 0.5 µg/mL (≈ 2.15 µM) | MIC [20]: 128 µg/mL (≈ 551 µM)
